Assay results: publication PMC4184567, “Glucuronidation of drugs in humanized UDP-glucuronosyltransferase 1 mice: Similarity with glucuronidation in human liver microsomes” (Pharmacology Research & Perspectives, 2013)

What was measured:
[1] = test system: UGT (furosemide glucuronidation); test: Inhibition of furosemide glucuronidation in human liver microsomes; format: in vitro ADME; settings: pH 7.4, probe furosemide
Text: (§1) IC50 values were directly determined from linear regression.

[2] = test system: furosemide glucuronidation in human liver microsomes; test: as above; format: in vitro ADME; settings: 500 μmol/L AZT
Text: as §1

[3] = test system: UGT (furosemide glucuronidation); test: Inhibition of furosemide glucuronidation in regular mouse liver microsomes; format: in vitro ADME; settings: CD-1, mouse, pH 7.4, probe furosemide; regular mice liver microsomes
Text: as §1

[4] = test system: furosemide glucuronidation in mouse liver microsomes; test: as above; format: in vitro ADME; settings: regular mice liver microsomes, 500 μmol/L AZT
Text: as §1

[5] = test system: UGT (furosemide glucuronidation); test: Inhibition of furosemide glucuronidation in liver microsomes from hUGT1 mice; format: in vitro ADME, humanized UGT1 mice; settings: male, Tg(UGT1A1*28)Ugt1−/− (hUGT1), C57BL/6 background, mouse (humanized UGT1), pH 7.4, probe furosemide; humanized UGT1 mice liver microsomes
Text: as §1

[6] = test system: furosemide glucuronidation in liver microsomes from hUGT1 mice; test: as above; format: in vitro ADME, humanized UGT1 mice; settings: hUGT1 mice liver microsomes, 500 μmol/L AZT
Text: as §1

[7] = test system: UGT activities in mouse liver microsomes; set-up: method as in Court and Greenblatt [1997]; settings: ref Court and Greenblatt [1997]; cited from earlier work
[8] = test system: UGT activities in human liver microsomes; set-up: method as in Court and Greenblatt [1997]; settings: ref Court and Greenblatt [1997]; cited from earlier work
[9] = test system: mouse liver microsomes
[10] = test system: liver microsomes from hUGT1 mice
[11] = test system: human liver microsomes
[12] = test system: furosemide glucuronidation in human liver microsomes; settings: 0–0.5% BSA
[13] = test system: furosemide glucuronidation in liver microsomes from hUGT1 mice; settings: 0–0.5% BSA
[14] = test system: furosemide glucuronidation in liver microsomes from control mice; settings: 0–0.5% BSA

For `Cc1cn([C@H]2C[C@H](N=[N+]=[N-])[C@@H](CO)O2)c(=O)[nH]c1=O` [AZT, 3′-azido-3′-deoxythymidine], the IC50 at 30 min [1] was over 500 µM, the “Inhibition of furosemide glucuronidation (in words)” value (shortened to “Inhibition”) [2] was “did not inhibit” and the IC50 at 30 min [3] was over 500 µM. For the same molecule, the “Inhibition” value [4] was “did not inhibit”, the IC50 at 30 min [5] was over 500 µM and the “Inhibition” value [6] was “did not inhibit”.
For `C[C@H](CCC(=O)NCCC[N+](C)(C)CCCS(=O)(=O)[O-])[C@H]1CC[C@H]2[C@@H]3[C@H](O)C[C@@H]4C[C@H](O)CC[C@]4(C)[C@H]3C[C@H](O)[C@]12C` [CHAPS], the “Increase of UGT activity by detergent” value [7] is given as 439–563% and the “Increase of UGT activities by detergent” value [8] is given as 9–66%.
`C[C@]12CC[C@@H]3c4ccc(O)cc4CC[C@H]3[C@@H]1CC[C@@H]2O` [estradiol] showed an IC50 at 30 min [1] of 31.7 µM, an IC50 at 30 min [3] of 111 µM and an IC50 at 30 min [5] of 32.5 µM.
In the case of `NCCc1c[nH]c2ccc(O)cc12` [serotonin], the IC50 at 30 min [1] is reported as over 5000 µM, the IC50 at 30 min [3] is reported as 450 µM and the IC50 at 30 min [5] is reported as 610 µM.
With `CN1CCN(CCCN2c3ccccc3Sc3ccc(C(F)(F)F)cc32)CC1` [trifluoperazine] the N-glucuronide formation [9] was “not detected”, the N-glucuronide formation [10] was “lesser but detectable amount” and the N-glucuronide formation [11] was “observed”.
In the case of bovine serum albumin [BSA], the “Effect of BSA on furosemide glucuronidation” value (from here on “Effect of BSA”) [12] is reported as “concentration-dependently activated”, the “Effect of BSA” value [13] is reported as “similarly observed” and the “Effect of BSA” value [14] is reported as “similarly observed”.
